# Test results: US20250179066A1, “ZWITTERIONIC ANTIBACTERIAL COMPOUNDS” (Hoffmann-La Roche Inc., priority 2022, published 2025)
# Structures can show the parent of a compound that is named as a salt.
# Test system: Acinetobacter baumannii ATCC17961
# Test: Antimicrobial susceptibility testing: 90% growth inhibitory concentration (IC90) determination
# Type: cell-based
# Settings: Acinetobacter baumannii, ATCC17961, 16 h, 90% growth inhibitory concentration against Acinetobacter baumannii ATCC17961, Iso-Sensitest broth, OD 600 nm over 16 h; read-out: ATCC 17961 IC90
# In short: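 Twofold serial dilutions (e.g. 10 to 0.0195 μM final) in Iso-Sensitest broth inoculated at ~5×10^5 CFU/mL, incubated at 35±2° C. OD600 read every minute for 16 h; IC90 is the concentration inhibiting 90% of growth during logarithmic phase.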
row,Structure (SMILES),IC90 [nM]
1,"Cn1c(-c2cn(-c3ccc(NCCO)cn3)nc2C(F)(F)F)cnc1C(=O)Nc1ccc(C(=O)N2CCN(C(=O)[C@H]3CC[N@+](CC(=O)O)(CC4CNC4)CC3)CC2)c(Cl)c1 [Example 38, cis-2-[1-(azetidin-3-ylmethyl)-4-[4-[2-chloro-4-[[5-[1-[5-(2-hydroxyethylamino)-2-pyridyl]-3-(trifluoromethyl)pyrazol-4-yl]-1-methyl-imidazole-2-carbonyl]amino]benzoyl]piperazine-1-carbonyl]piperidin-1-ium-1-yl]acetic acid; formate]",430
2,"Cc1cc(NC(=O)c2ncc(-c3cn(-c4ccc5[nH]ccc5n4)nc3C(F)(F)F)n2C)ccc1C(=O)N1CCN(C(=O)[C@H]2CC[N@+](CC(=O)O)(CC3CNC3)CC2)CC1 [Example 132, cis-2-[1-(azetidin-3-ylmethyl)-4-[4-[2-methyl-4-[[1-methyl-5-[1-(1H-pyrrolo[3,2-b]pyridin-5-yl)-3-(trifluoromethyl)pyrazol-4-yl]imidazole-2-carbonyl]amino]benzoyl]piperazine-1-carbonyl]piperidin-1-ium-1-yl]acetic acid. 1:1 2,2,2-trifluoroacetate]",139
3,"Cn1c(-c2cn(-c3nc4ccccc4s3)nc2C(F)(F)F)cnc1C(=O)Nc1ccc(C(=O)N2CCN(C(=O)C3CC[N+](CC(=O)O)(CC4CNC4)CC3)CC2)c(Cl)c1 (stereo not shown) [Example 80, 2-[1-(azetidin-3-ylmethyl)-4-[4-[4-[[5-[1-(1,3-benzothiazol-2-yl)-3-(trifluoromethyl)pyrazol-4-yl]-1-methyl-imidazole-2-carbonyl]amino]-2-chloro-benzoyl]piperazine-1-carbonyl]piperidin-1-ium-1-yl]acetic acid. 1:1 formate]",1200
4,"Cn1c(-c2cn(-c3ccc4[nH]ccc4n3)nc2C(F)(F)F)cnc1C(=O)Nc1ccc(C(=O)N2CCN(C(=O)CCC[N+](CCCCN)(CCCCN)CC(=O)O)CC2)c(Cl)c1 [Example 9, Bis(4-aminobutyl)-(carboxymethyl)-[4-[4-[2-chloro-4-[[1-methyl-5-[1-(1H-pyrrolo[3,2-b]pyridin-5-yl)-3-(trifluoromethyl)pyrazol-4-yl]imidazole-2-carbonyl]amino]benzoyl]piperazino]-4-keto-butyl]ammonium.1:1 2,2,2-trifluoroacetic Acid. 1:1 2,2,2-trifluoroacetate]",100
5,"Cn1c(-c2cn(-c3ccc(N)cn3)nc2C(F)(F)F)cnc1C(=O)Nc1ccc(C(=O)N2CCN(C(=O)[C@H]3CC[N@+](CC(=O)O)(CC4CNC4)CC3)CC2)c(Cl)c1 [Example 34, cis-2-[4-[4-[4-[[5-[1-(5-amino-2-pyridyl)-3-(trifluoromethyl)pyrazol-4-yl]-1-methyl-imidazole-2-carbonyl]amino]-2-chloro-benzoyl]piperazine-1-carbonyl]-1-(azetidin-3-ylmethyl)piperidin-1-ium-1-yl]acetic acid. 1:1 2,2,2-trifluoroacetic acid. 1:1 2,2,2-trifluoroacetate]",400
6,"Cn1c(-c2cn(-c3ccc4[nH]c(C(CO)CO)cc4n3)nc2C(F)(F)F)cnc1C(=O)Nc1ccc(C(=O)N2CCN(C(=O)[C@H]3CC[N@@+](CCCN)(CC(=O)O)CC3)CC2)c(Cl)c1 [Example 102, cis-2-[1-(3-aminopropyl)-4-[4-[2-chloro-4-[[5-[1-[2-[2-hydroxy-1-(hydroxymethyl)ethyl]-1H-pyrrolo[3,2-b]pyridin-5-yl]-3-(trifluoromethyl)pyrazol-4-yl]-1-methyl-imidazole-2-carbonyl]amino]benzoyl]piperazine-1-carbonyl]piperidin-1-ium-1-yl]acetic acid;formate]",445
7,"Cn1c(-c2cn(-c3ccc(NCC4CC4(F)F)cn3)nc2C(F)(F)F)cnc1C(=O)Nc1ccc(C(=O)N2CCN(C(=O)C3CC[N+](CC(=O)O)(CC4CNC4)CC3)CC2)c(Cl)c1 (stereo not shown) [Example 6, 2-[1-(azetidin-3-ylmethyl)-4-[4-[2-chloro-4-[[5-[1-[5-[(2,2-difluorocyclopropyl)methylamino]-2-pyridyl]-3-(trifluoromethyl)pyrazol-4-yl]-1-methyl-imidazole-2-carbonyl]amino]benzoyl]piperazine-1-carbonyl]piperidin-1-ium-1-yl]acetic acid. 1:1 2,2,2-trifluoroacetate]",690
8,"Cn1c(-c2cn(-c3cc4[nH]c(C(=O)NO)cc4cn3)nc2C(F)(F)F)cnc1C(=O)Nc1ccc(C(=O)N2CCN(C(=O)[C@H]3CC[N@+](CC(=O)O)(CC4CNC4)CC3)CC2)c(Cl)c1 [Example 125, cis-2-[1-(azetidin-3-ylmethyl)-4-[4-[2-chloro-4-[[5-[1-[2-(hydroxycarbamoyl)-1H-pyrrolo[3,2-c]pyridin-6-yl]-3-(trifluoromethyl)pyrazol-4-yl]-1-methyl-imidazole-2-carbonyl]amino]benzoyl]piperazine-1-carbonyl]piperidin-1-ium-1-yl]acetic acid. 1:1 2,2,2-trifluoroacetate]",361
9,"CN(C)Cc1ccc(-n2cc(-c3cnc(C(=O)Nc4ccc(C(=O)N5CCN(C(=O)C6CC[N+](CC(=O)O)(CC7CNC7)CC6)CC5)c(Cl)c4)n3C)c(C(F)(F)F)n2)nc1 (stereo not shown) [Example 84, 2-[1-(azetidin-3-ylmethyl)-4-[4-[2-chloro-4-[[5-[1-[5-[(dimethylamino)methyl]-2-pyridyl]-3-(trifluoromethyl)pyrazol-4-yl]-1-methyl-imidazole-2-carbonyl]amino]benzoyl]piperazine-1-carbonyl]piperidin-1-ium-1-yl]acetic acid. 1:1 formic acid. 1:1 formate]",1280
10,"Cn1c(-c2cn(-c3ccc(NCCN)nc3)nc2C(F)(F)F)cnc1C(=O)Nc1ccc(C(=O)N2CCN(C(=O)C3CC[N+](CC(=O)O)(CC4CNC4)CC3)CC2)c(Cl)c1 (stereo not shown) [Example 8, 2-[4-[4-[4-[[5-[1-[6-(2-aminoethylamino)-3-pyridyl]-3-(trifluoromethyl)pyrazol-4-yl]-1-methyl-imidazole-2-carbonyl]amino]-2-chloro-benzoyl]piperazine-1-carbonyl]-1-(azetidin-3-ylmethyl)piperidin-1-ium-1-yl]acetic acid. 1:1 2,2,2-trifluoroacetate]",1550
11,"Cn1c(-c2cn(-c3ncc(N)cc3F)nc2C(F)(F)F)cnc1C(=O)Nc1ccc(C(=O)N2CCN(C(=O)[C@H]3CC[N@+](CC(=O)O)(CC4CNC4)CC3)CC2)c(Cl)c1 [Example 58, cis-2-[4-[4-[4-[[5-[1-(5-Amino-3-fluoro-2-pyridyl)-3-(trifluoromethyl)pyrazol-4-yl]-1-methyl-imidazole-2-carbonyl]amino]-2-chloro-benzoyl]piperazine-1-carbonyl]-1-(azetidin-3-ylmethyl)piperidin-1-ium-1-yl]acetic Acid.1:1 2,2,2-trifluoroacetate]",630

# Further lines, results first:
row,IC90 [nM],Structure (SMILES)
1,172,"Cn1c(-c2cn(-c3cc4[nH]c(CCO)cc4cn3)nc2C(F)(F)F)cnc1C(=O)Nc1ccc(C(=O)N2CCN(C(=O)[C@H]3CC[N@+](CC(=O)O)(CC4CNC4)CC3)CC2)c(Cl)c1 [Example 154, cis-2-[1-(azetidin-3-ylmethyl)-4-[4-[2-chloro-4-[[5-[1-[2-(2-hydroxyethyl)-1H-pyrrolo[3,2-c]pyridin-6-yl]-3-(trifluoromethyl)pyrazol-4-yl]-1-methyl-imidazole-2-carbonyl]amino]benzoyl]piperazine-1-carbonyl]piperidin-1-ium-1-yl]acetic acid;formate]"
2,408,"Cn1c(-c2cn(-c3ccc4c(ccn4C(C)(C)C(N)=O)n3)nc2C(F)(F)F)cnc1C(=O)Nc1ccc(C(=O)N2CCN(C(=O)[C@H]3CC[N@+](CC(=O)O)(CC4CNC4)CC3)CC2)c(Cl)c1 [Example 138, cis-2-[4-[4-[4-[[5-[1-[1-(2-amino-1,1-dimethyl-2-oxo-ethyl)pyrrolo[3,2-b]pyridin-5-yl]-3-(trifluoromethyl)pyrazol-4-yl]-1-methyl-imidazole-2-carbonyl]amino]-2-chloro-benzoyl]piperazine-1-carbonyl]-1-(azetidin-3-ylmethyl)piperidin-1-ium-1-yl]acetic acid;chloride]"
3,466,"Cn1c(-c2cn(-c3ccc4c(cc(CO)n4CC#N)n3)nc2C(F)(F)F)cnc1C(=O)Nc1ccc(C(=O)N2CCN(C(=O)[C@H]3CC[N@+](CC(=O)O)(CC4CNC4)CC3)CC2)c(Cl)c1 [Example 169, cis-2-[1-(azetidin-3-ylmethyl)-4-[4-[2-chloro-4-[[5-[1-[1-(cyanomethyl)-2-methylol-pyrrolo[3,2-b]pyridin-5-yl]-3-(trifluoromethyl)pyrazol-4-yl]-1-methyl-imidazole-2-carbonyl]amino]benzoyl]piperazine-1-carbonyl]piperidin-1-ium-1-yl]acetic acid. 1:1 2,2,2-trifluoroacetate]"
4,146,"Cn1c(-c2cn(-c3ccc4[nH]ccc4n3)nc2C(F)(F)F)cnc1C(=O)Nc1ccc(C(=O)N2CCN(C(=O)[C@H]3CC[N@+](CC(=O)O)(CC4CNC4)CC3)CC2)c(F)c1 [Example 133, cis-2-[1-(azetidin-3-ylmethyl)-4-[4-[2-fluoro-4-[[1-methyl-5-[1-(1H-pyrrolo[3,2-b]pyridin-5-yl)-3-(trifluoromethyl)pyrazol-4-yl]imidazole-2-carbonyl]amino]benzoyl]piperazine-1-carbonyl]piperidin-1-ium-1-yl]acetic acid. 1:1 2,2,2-trifluoroacetate]"
5,181,"Cn1c(-c2cn(-c3cc4[nH]cc(C(=O)N5CCNCC5)c4cn3)nc2C(F)(F)F)cnc1C(=O)Nc1ccc(C(=O)N2CCN(C(=O)[C@H]3CC[N@+](CC(=O)O)(CC4CNC4)CC3)CC2)c(Cl)c1 [Example 147, cis-2-[1-(azetidin-3-ylmethyl)-4-[4-[2-chloro-4-[[1-methyl-5-[1-[3-(piperazine-1-carbonyl)-1H-pyrrolo[3,2-c]pyridin-6-yl]-4-(trifluoromethyl)pyrazol-4-yl]imidazole-2-carbonyl]amino]benzoyl]piperazine-1-carbonyl]piperidin-1-ium-1-yl]acetic acid. 1:1 2,2,2-trifluoroacetate]"
